Assay results as given in patent US11365184B2, “Antiproliferative compounds, and their pharmaceutical compositions and uses” (Celgene Corporation, priority 2016, dated 2022).

System: KG-1 cell line
Assay: KG-1 cell proliferation assay (Cell Titer-Glo)
Assay type: cell-based
Settings: Homo sapiens; KG-1 cells, 72 hours post-treatment, Cell Titer-Glo luminescence; read-out: FCA Prolif Cell TiterGlo KG-1 72 h (IC50)
Description: The following is an example of an assay that can be used to determine the anti-proliferative activity of Compound A and Compound B in KG-1 cell line (American Type Culture Collection [ATCC]: catalogue number ATCC© CCL-246™) at 72 hours post-treatment. The seeding density for KG-1 can be optimized to ensure assay linearity in 384-well plates.
Increasing concentrations of test compounds (0.5 nM to 10 μM) was spotted in a 10-point serial dilution fashion (3-fold dilution) in duplicate via an acoustic dispenser (EDC ATS-100) into an empty 384-well plate. The dimethyl sulfoxide (DMSO) concentration was kept constant for a final assay concentration of 0.1% DMSO. Prior to testing, KG-1 cells were grown in RPMI-1640 (Roswell Park Memorial Institute-1640) medium with 10% FBS (fetal bovine serum: HyClone) and expanded in culture flasks to provide sufficient amounts of starting material. Cells were then diluted to 5000 cells per well, in a 50 μL volume and added directly to the compound-spotted 384-well plates. Cells were allowed to grow for 72 hours in 5% CO2 at 37° C. At the time when exposure of cells to compound began (to), initial viable cell number was assessed via Cell Titer-Glo® Luminescent Cell Viability Assay at a 1 vol: 2 vol ratio according to manufacturer's instructions (Promega Corporation, Madison, Wis.) by quantifying the level of luminescence generated by adenosine-5′-triphosphate (ATP) present in viable cells. After 72 hours, cell viability of the treated cells is assessed via Cell Titer-Glo® and read for luminescence.

Row | Structure (SMILES) | IC50 [µM]
1 | O=C1CCC(N2Cc3cc(CNC(=O)C(F)(F)c4ccc(F)cc4)ccc3C2=O)C(=O)N1COP(=O)(O)O (stereo not drawn) | 0.1 to 0.7
2 | CC(C)[C@H](N)C(=O)OCN1C(=O)CCC(N2Cc3cc(CNC(=O)C(F)(F)c4ccc(F)cc4)ccc3C2=O)C1=O (stereo partly drawn) | 0.01 to 0.1
3 | O=C1CCC(N2Cc3cc(CNC(=O)C(F)(F)c4ccc(Cl)cc4)ccc3C2=O)C(=O)N1COP(=O)(O)O (stereo not drawn) | 0.1 to 0.7
